From patent publication US5208240A, “8-substituted purines as selective adenosine receptor agents” (Merrell Dow Pharmaceuticals Inc., priority 1991, dated 1993) come the findings set out here.

In one experiment the target is T1, A2-adenosine receptor (Rattus norvegicus, UniProt P30543).
T1 construct: from tissue
Put plainly: Adenosine A2 receptor binding (method of Bruns et al.). As for the experimental part: (§1) IC50 values for A1 -adenosine receptor binding is determined according to the method of Goodman et al. [Mol. Pharmacol. 21:329-35, 1982]. IC50 values for A2 -adenosine receptor binding is determined according to the method of Bruns et al. [Mol. Pharmacol. 29:331-46, 1986].

A further experiment addresses A1-adenosine receptor. Put plainly: Adenosine A1 receptor binding (method of Goodman et al.). The method, then: as §1

T1 sequence (P30543 whole entry): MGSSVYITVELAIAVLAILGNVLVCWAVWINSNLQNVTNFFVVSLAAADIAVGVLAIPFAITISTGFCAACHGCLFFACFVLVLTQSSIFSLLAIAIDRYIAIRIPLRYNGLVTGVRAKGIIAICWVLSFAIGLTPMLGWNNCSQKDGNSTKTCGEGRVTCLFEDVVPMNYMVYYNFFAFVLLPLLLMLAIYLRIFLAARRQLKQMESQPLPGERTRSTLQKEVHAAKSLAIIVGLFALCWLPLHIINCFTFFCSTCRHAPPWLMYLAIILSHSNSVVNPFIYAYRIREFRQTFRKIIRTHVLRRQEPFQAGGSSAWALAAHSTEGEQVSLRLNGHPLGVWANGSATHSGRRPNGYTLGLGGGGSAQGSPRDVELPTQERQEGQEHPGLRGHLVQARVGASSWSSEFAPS

As usually defined, the IC50 is the concentration needed to halve the response being measured. A higher IC50 goes with a need for much substance. `CCCn1c(=O)c2nc(C(C)Cc3ccc(OCC(=O)NCCN)cc3)[nH]c2n(CCC)c1=O` (single isomer, unassigned; (+)) [Compound 101993, (+)-N (2-Aminoethyl)-2-[4-[2-(2,3,6,9-tetrahydro-1,3-dipropyl-2,6-dioxo-1H-purin-8-yl)propyl]phenoxy]-acetamide]: the IC50 is 1800 nM on A2-adenosine receptor and 60 nM on A1-adenosine receptor.
As to `CCCn1c(=O)c2nc(C(C)Cc3ccc(OCC(=O)NCCN)cc3)[nH]c2n(CCC)c1=O` (single isomer, unassigned; (-)) [Compound 100991, (-)-N-(2-Aminoethyl)-2-[4-[2-(2,3,6,9-tetrahydro-1,3-dipropyl-2,6-dioxo-1H-purin-8-yl)propyl]phenoxy]-acetamide], the IC50 was found to be 300 nM on A2-adenosine receptor and 10 nM on A1-adenosine receptor.
As for `CCCn1c(=O)c2nc(C(C)Cc3ccc(OCC(=O)NCCN)cc3)[nH]c2n(CCC)c1=O` (stereo not drawn) [Compound 101345, N-(2-Aminoethyl)-2-[4-[2-(2,3,6,9-tetrahydro-1,3-dipropyl-2,6-dioxo-1H-purin-8-yl)propyl]phenoxy]-acetamide], the half-inhibitory concentration (IC50) is 36 nM on A2-adenosine receptor and 14 nM on A1-adenosine receptor.
For `CCCn1c(=O)c2nc(C(CC)c3ccc(OCC(=O)O)cc3)[nH]c2n(CCC)c1=O` (stereo not drawn) [Compound 101673, 2-[4-[1-(2,3,6,9-Tetrahydro-1,3-dipropyl-2,6-dioxo-1H-purin-8-yl)propyl]phenoxy]acetic acid], in that order: over 10000 nM and 1180 nM.
On the same counts, the results for `CCCn1c(=O)c2nc(C(C)Cc3ccc(OCC(=O)O)cc3)[nH]c2n(CCC)c1=O` (stereo not drawn) [Compound 101699, 2-[4-[2-(2,3,6,9-Tetrahydro-1,3-dipropyl-2,6-dioxo-1H-purin-8-yl)propyl]phenoxy]acetic acid] are 5700 nM and 327 nM.
For `CCCn1c(=O)c2nc(C(CC)c3ccc(OCC(=O)NCCN)cc3)[nH]c2n(CCC)c1=O` (stereo not drawn) [Compound 102130, N-(2Aminoethyl)-2-[4-[1-(2,3,6,9-tetrahydro-1,3-dipropyl-2,6-dioxo-1H-purin-8-yl)propyl]phenoxy]-acetamide], in that order: 60 nM and 4.4 nM.
